Source: patent US20220227781A1, “PYRIMIDINE DERIVATIVE INHIBITING GROWTH OF CANCER CELL AND MEDICINAL USE THEREOF” (ONCOBIX CO., LTD., priority 2019, published 2022)

Target: EXON 20 Insertion (NPG) Ba/F3 Cell (Homo sapiens, UniProt P00533, INS772GNP, cells depend on it)
Experiment: Measurement of inhibitory effect on cancer cell growth (MTT assay)
Details: read-out: Measured value of inhibitory effect on cancer cell growth (IC50), EXON 20 Insertion (NPG) Ba/F3 Cell, Ba/F3 cells expressing EGFR with NPG inserted at D770_N771, 72 hours treatment, read at 595 nm
Description: First, the present invention used a vector in which NPG of 3 amino acids were added to D770_N771 site of the most frequent alterations, and used the Ba/F3 cell line for expression of these genes.
Pre-constructed stable cells of 1×10^4 cells were placed in a 96 well plate and incubated overnight, and then the compounds of Examples were treated at a dose dependent manner After 72 hours, MTT reagent was added, and after 3 hours, stop buffer (10% SDS) was added.

Sequence of EXON 20 Insertion (NPG) Ba/F3 Cell (P00533 with tags, fused parts or gaps INS772GNP): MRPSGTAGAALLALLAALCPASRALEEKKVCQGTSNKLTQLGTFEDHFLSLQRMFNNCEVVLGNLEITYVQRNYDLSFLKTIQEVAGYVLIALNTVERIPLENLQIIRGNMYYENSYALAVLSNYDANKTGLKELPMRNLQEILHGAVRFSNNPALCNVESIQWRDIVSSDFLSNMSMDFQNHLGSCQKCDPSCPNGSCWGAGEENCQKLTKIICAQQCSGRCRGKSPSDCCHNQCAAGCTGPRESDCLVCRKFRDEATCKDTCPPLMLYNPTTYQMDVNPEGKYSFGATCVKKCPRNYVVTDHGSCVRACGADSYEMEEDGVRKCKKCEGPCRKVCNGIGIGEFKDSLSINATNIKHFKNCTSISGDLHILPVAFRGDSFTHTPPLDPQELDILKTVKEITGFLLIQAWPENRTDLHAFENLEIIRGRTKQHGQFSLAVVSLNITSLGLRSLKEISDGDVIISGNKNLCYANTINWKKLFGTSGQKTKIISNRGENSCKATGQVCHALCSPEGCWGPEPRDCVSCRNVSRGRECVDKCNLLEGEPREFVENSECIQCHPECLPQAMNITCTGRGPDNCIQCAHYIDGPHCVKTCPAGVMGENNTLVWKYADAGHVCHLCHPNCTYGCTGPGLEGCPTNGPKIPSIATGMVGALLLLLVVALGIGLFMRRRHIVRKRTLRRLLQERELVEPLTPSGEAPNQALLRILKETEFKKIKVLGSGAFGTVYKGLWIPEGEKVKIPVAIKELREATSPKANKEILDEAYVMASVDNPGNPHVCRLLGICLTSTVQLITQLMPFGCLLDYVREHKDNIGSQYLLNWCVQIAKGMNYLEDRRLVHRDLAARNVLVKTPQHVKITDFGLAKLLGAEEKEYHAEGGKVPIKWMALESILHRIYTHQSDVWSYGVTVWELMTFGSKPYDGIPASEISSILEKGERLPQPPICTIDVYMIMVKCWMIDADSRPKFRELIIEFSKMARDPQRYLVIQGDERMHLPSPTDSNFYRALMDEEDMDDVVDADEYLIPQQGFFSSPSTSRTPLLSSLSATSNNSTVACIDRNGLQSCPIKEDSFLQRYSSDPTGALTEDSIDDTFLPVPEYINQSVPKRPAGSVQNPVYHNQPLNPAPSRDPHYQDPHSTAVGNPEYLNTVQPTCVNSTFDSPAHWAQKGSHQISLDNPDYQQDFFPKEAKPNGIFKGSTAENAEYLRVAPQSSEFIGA

| GI50 | SMILES |
| --- | --- |
| 300 to 1000 nM | COc1cc(N2CCC(N3CCN(C)CC3)CC2)c(NC(C)C)cc1Nc1ncc(Cl)c(Nc2ccccc2N(C)S(C)(=O)=O)n1 [Example 5, N-(2-((5-chloro-2-((5-(isopropylamino)-2-methoxy-4-(4-(4-methylpiperazin-1-yl)piperidin-1-yl)phenyl)amino)pyrimidin-4-yl)amino)phenyl)-N-methylmethanesulfonamide] |
| < 100 nM | C=CC(=O)Nc1cc(Nc2ncc(Cl)c(Nc3cc(F)ccc3N(C)S(C)(=O)=O)n2)c(OC)cc1N(C)CCN(C)C [Example 13, N-(5-((5-chloro-4-((5-fluoro-2-(N-methylmethylsulfonamido)phenyl)amino)pyrimidin-2-yl)amino)-2-((2-(dimethylamino)ethyl)(methyl)amino)-4-methoxyphenyl)acrylamide] |
| 300 to 1000 nM | COc1cc(N2CCC(N(C)C)CC2)c(NC(C)C)cc1Nc1ncc(Cl)c(Nc2ccccc2N(C)S(C)(=O)=O)n1 [Example 6, N-(2-((5-chloro-2-((4-(4-(dimethylamino)piperidin-1-yl)-5-(isopropylamino)-2-methoxyphenyl)amino)pyrimidin-4-yl)amino)phenyl)-N-methylmethanesulfonamide] |
| 300 to 1000 nM | COc1cc(N(C)CCN(C)C)c(NC(C)C)cc1Nc1nc(Nc2ccccc2N(C)S(C)(=O)=O)c2sccc2n1 [Example 2, N-(2-((2-((4-((2-(dimethylamino)ethyl)(methyl)amino)-5-(isopropylamino)-2-methoxyphenyl)amino)thieno[3,2-d]pyrimidin-4-yl)amino)phenyl)-N-methylmethanesulfonamide] |
| 100 to 300 nM | C=CC(=O)Nc1cc(Nc2nc(Nc3ccccc3N(C)S(C)(=O)=O)c3sccc3n2)c(OC)cc1N1CCC(N(C)C)CC1 [Example 9, N-(2-(4-(dimethylamino)piperidin-1-yl)-4-methoxy-5-((4-((2-(N-methylmethylsulfonamido)phenyl)amino)thieno[3,2-d]pyrimidin-2-yl)amino)phenyl)acrylamide] |
| < 100 nM | C=CC(=O)Nc1cc(Nc2ncc(Cl)c(Nc3ccccc3NS(C)(=O)=O)n2)c(OC)cc1N(C)CCN(C)C [Example 10, N-(5-((5-chloro-4-((2-(methylsulfonamido)phenyl)amino)pyrimidin-2-yl)amino)-2-((2-(dimethylamino)ethyl)(methyl)amino)-4-methoxyphenyl)acrylamide] |
| 300 to 1000 nM | COc1cc(N(C)CCN(C)C)c(NC(C)C)cc1Nc1ncc(Cl)c(Nc2ccccc2N(C)S(C)(=O)=O)n1 [Example 1, N-(2-((5-chloro-2-((4-((2-(dimethylamino)ethyl)(methyl)amino)-5-(isopropylamino)-2-methoxyphenyl)amino)pyrimidin-4-yl)amino)phenyl)-N-methylmethanesulfonamide] |
| 300 to 1000 nM | COc1cc(N2CCC(N(C)C)CC2)c(NC(C)C)cc1Nc1nc(Nc2ccccc2N(C)S(C)(=O)=O)c2sccc2n1 [Example 3, N-(2-((2-((4-(4-(dimethylamino)piperidin-1-yl)-5-(isopropylamino)-2-methoxyphenyl)amino)thieno[3,2-d]pyrimidin-4-yl)amino)phenyl)-N-methylmethanesulfonamide] |
| < 100 nM | C=CC(=O)Nc1cc(Nc2ncc(C(=O)OC3CC3)c(Nc3ccccc3N(C)S(C)(=O)=O)n2)c(OC)cc1N(C)CCN(C)C [Example 16, CYCLOPROPYL 2-((5-acrylamido-4-((2-(dimethylamino)ethyl)(methyl)amino)-2-methoxyphenyl)amino)-4-((2-(N-methylmethylsulfonamido)phenyl)amino)pyrimidine-5-carboxylate] |
| < 100 nM | C=CC(=O)Nc1cc(Nc2cc(Nc3ccccc3N(C)S(C)(=O)=O)ncn2)c(OC)cc1N(C)CCN(C)C [Example 17, N-(2-((2-(dimethylamino)ethyl)(methyl)amino)-4-methoxy-5-((6-((2-(N-methylmethylsulfon amido)phenyl)amino)pyrimidin-4-yl)amino)phenyl)acrylamide] |
| < 100 nM | C=CC(=O)Nc1cc(Nc2ncc(C(=O)OC(C)C)c(Nc3ccccc3N(C)S(C)(=O)=O)n2)c(OC)cc1N(C)CCN(C)C [Example 15, ISOPROPYL 2-((5-acrylamido-4-((2-(dimethylamino)ethyl)(methyl)amino)-2-methoxyphenyl)amino)-4-((2-(N-methylmethylsulfonamido)phenyl)amino)pyrimidine-5-carboxylate] |
| 300 to 1000 nM | COc1cc(N2CCC(N3CCN(C)CC3)CC2)c(NC(C)C)cc1Nc1nc(Nc2ccccc2N(C)S(C)(=O)=O)c2sccc2n1 [Example 4, N-(2-((2-((5-(isopropylamino)-2-methoxy-4-(4-(4-methylpiperazin-1-yl)piperidin-1-yl)phenyl)amino)thieno[3,2-d]pyrimidin-4-yl)amino)phenyl)-N-methylmethanesulfonamide] |
| < 100 nM | C=CC(=O)Nc1cc(Nc2ncc(Cl)c(Nc3ccc4nccnc4c3N(C)S(C)(=O)=O)n2)c(OC)cc1N(C)CCN(C)C [Example 11, N-(5-((5-chloro-4-((5-(N-methylmethylsulfonamido)quinoxalin-6-yl)amino)pyrimidin-2-yl)amino)-2-((2-(dimethylamino)ethyl)(methyl)amino)-4-methoxyphenyl)acrylamide] |
| < 100 nM | C=CC(=O)Nc1cc(Nc2ncc(Cl)c(Nc3cc(F)ccc3NS(C)(=O)=O)n2)c(OC)cc1N(C)CCN(C)C [Example 14, N-(5-((5-chloro-4-((5-fluoro-2-(methylsulfonamido)phenyl)amino)pyrimidin-2-yl)amino)-2-((2-(dimethylamino)ethyl)(methyl)amino)-4-methoxyphenyl)acrylamide] |
| < 100 nM | C=CC(=O)Nc1cc(Nc2ncc(Cl)c(Nc3ccc4nccnc4c3NS(C)(=O)=O)n2)c(OC)cc1N(C)CCN(C)C [Example 12, N-(5-((5-chloro-4-((5-(methylsulfonamido)quinoxalin-6-yl)amino)pyrimidin-2-yl)amino)-2-((2-(dimethylamino)ethyl)(methyl)amino)-4-methoxyphenyl)acrylamide] |
| 100 to 300 nM | C=CC(=O)Nc1cc(Nc2nc(Nc3ccccc3N(C)S(C)(=O)=O)c3sccc3n2)c(OC)cc1N1CCC(N2CCN(C)CC2)CC1 [Example 7, N-(4-methoxy-5-((4-((2-(N-methylmethylsulfonamido)phenyl)amino)thieno[3,2-d]pyrimidin-2-yl)amino)-2-(4-(4-methylpiperazin-1-yl)piperidin-1-yl)phenyl)acrylamide] |
| 100 to 300 nM | C=CC(=O)Nc1cc(Nc2nc(Nc3ccccc3N(C)S(C)(=O)=O)c3sccc3n2)c(OC)cc1N(C)CCN(C)C [Example 8, N-(2-((2-(dimethylamino)ethyl)(methyl)amino)-4-methoxy-5-((4-((2-(N-methylmethylsulfon amido)phenyl)amino)thieno[3,2-d]pyrimidin-2-yl)amino)phenyl)acrylamide] |
